From PMC11429909, “Protein Structure Inspired Discovery of a Novel Inducer of Anoikis in Human Melanoma” (Cancers, 2024)

How the values were obtained:
HT29 = assay: Eight-day colony formation assay, colon cancer HT29; format: cell-based, human; conditions: 0.82 µM
Description: Initial colony formation screening assays were conducted on all acquired compounds and examined at five different compound concentrations. Those meeting efficacy criteria underwent a second-level screen examining nine different compound concentrations. Eight-day colony formation assays of cancer cells were performed as described by us. Briefly, 0.5–1.0 × 10^3 cells were seeded into each well of a 12-well plate. Twenty-four hours later, the compound was added at the following final concentrations: 0 (DMSO-only control), 0.017, 0.12, 0.82, 5.7, and 40 µM. For each concentration, there were N = 2 replicates, i.e., 2 wells. Eight days later, plates were stained with trypan blue, visualized under light microscopy, and groups of three or more cells were scored as colonies. The mean number of colonies was then determined and expressed as the percentage of controls. […]
In addition to screens, eight-day colony formation assays were conducted for certain experiments, as denoted. […] The IC50 values were calculated using nonlinear regression analysis. […] The IC50 values were determined using the dose–response inhibition function. […]
Human hematopoietic stem cell trilineage colony formation assays were performed as previously described by us. […] At eight days, colonies (i.e., groups of ≥10 cells) were counted. […] The mean number of colonies was then determined and expressed as the percentage of controls. […]

[1] = system: human cord blood CD34+ cells; assay: Bone marrow stem cell (hematopoietic trilineage) colony formation assay; format: cell-based; conditions: for Mean Number of Colonies, % of Control, 14 days / Mean Number of Colonies, % of Control, 8 days: normal bone marrow, compound at 40 µM, N = 2; for Mean Number of Colonies, % of Control, 8 days: total colonies at 8 days
Description: (§1) Human hematopoietic stem cell trilineage colony formation assays were performed as previously described by us. Briefly, human cord blood CD34+ cells (catalog #: 70008.5) were purchased from StemCell Technology Inc. and seeded at 1 × 10^4 cells per 35 mm dish. Cells were cultured in MethoCult™ Express (StemCell Technologies, Inc. (Vancouver, BC, Canada)) semisolid media, per the manufacturer’s instructions, in the presence of compound or vehicle (for controls). Compounds were added at final concentrations matching those used in the initial growth assay screens. At eight days, colonies (i.e., groups of ≥10 cells) were counted. At fourteen days, individual colonies of erythroid burst-forming units (BFU-E), colony-forming unit granulocyte–macrophage (CFU-GM), and colony-forming unit granulocyte, erythrocyte, monocyte, and megakaryocyte (CFU-GEMM) were identified based on the manufacturers’ morphologic characterization criteria. Assays were run in replicates of N = 2, and some were run in replicates of N = 4, as denoted. The mean number of colonies was then determined and expressed as the percentage of controls. The effect of each compound on inhibiting the growth of cancer cells relative to its toxic effects on normal bone marrow was evaluated. This was carried out by comparing colonies at 8 days for each cancer cell line to that of bone marrow. This information was used to calculate the efficacy ratio, as follows: efficacy ratio = (percent of remaining cancer cell colonies)/(percent of remaining bone marrow colonies). This was performed for all compounds at 40 µM and for selected compounds at 5.7 µM, as denoted. For compounds nominated for second-level screens, bone marrow colony formation assays were also repeated. Compounds were added at final concentrations matching those used in the initial screens.
In parallel with measuring growth inhibition of cancer cell growth, we measured the effect on human hematopoietic stem cells. Hematopoietic stem cells reside in the bone marrow and are the source of mature cells present in blood. Bone marrow is one of the most sensitive organs in the body to drug toxicity, and this is especially so for anticancer drugs, where bone marrow toxicity can approach 100% [78, 79, 80]. Bone marrow toxicity was measured by performing hematopoietic colony formation assays on human CD34+ stem cells. The stem cell nature of this assay permitted the assessment of trilineage colony formation: granulocytic (white blood cells), erythrocytic (red blood cells), and megakaryocytic (platelets), measured by the formation of CFU-GM, BFU-E, and CFU-GEMM colonies, respectively. Two measurements were taken. First, total colonies at eight days were measured, thereby matching the eight-day timeframe of cancer cell colony formation assays. Second, at fourteen days, individual colonies had differentiated, permitting quantification of each lineage.

[2] = system: breast, prostate, colon, or lung cancer cell lines; assay: Eight-day colony formation assays, summary across the cancer cell line panel; format: cell-based, human; conditions: for efficacy at concentrations below 40 µM (in words): 8-day colony formation
Description: Initial colony formation screening assays were conducted on all acquired compounds and examined at five different compound concentrations. Those meeting efficacy criteria underwent a second-level screen examining nine different compound concentrations. Eight-day colony formation assays of cancer cells were performed as described by us. Briefly, 0.5–1.0 × 10^3 cells were seeded into each well of a 12-well plate. Twenty-four hours later, the compound was added at the following final concentrations: 0 (DMSO-only control), 0.017, 0.12, 0.82, 5.7, and 40 µM. For each concentration, there were N = 2 replicates, i.e., 2 wells. Eight days later, plates were stained with trypan blue, visualized under light microscopy, and groups of three or more cells were scored as colonies. The mean number of colonies was then determined and expressed as the percentage of controls. Second-level screens were performed on compounds inhibiting colony formation by greater than 50% at 40 µM in at least two cell lines. Second-level assays used the following final concentrations of compound: 0 (DMSO only), 0.0061, 0.018, 0.05, 0.16, 0.49, 1.48, 4.44, 13.33, and 40 µM. All compounds were stored under desiccated conditions in a sealed container at minus 20 °C upon arrival. One day prior to use, they were dissolved in DMSO, stored at minus 20 °C as stock solutions, thawed just prior to use, and not reused.
as §1
We sought to identify compounds that would inhibit the growth of cancer cells, but that also did so selectively. Inhibition of cancer cell growth is a highly sought after attribute of anticancer agents. This was assessed by measuring the ability of a compound to inhibit cell growth in eight-day colony formation assays and examining concentrations ranging from 0.017 to 40 µM. Breast, colon, lung, and prostate cancer are four of the most common types of cancer in the United States, are major causes of cancer cell death, and were examined. […]

NCI-60 cell lines = assay: NCI-60 cell line screen; format: cell-based, human; conditions: 48 h at 10 µM
Description: The above findings support the importance of Dxr2 and FolC2 sites, and of Dxr2-017 and FolC2-001 compounds, respectively. The NCI-60 cell line screen evaluates compound growth inhibition and cell toxicity in a highly standardized manner across 60 different cell lines. Dxr2-017 and FolC2-001 were evaluated in this assay (Figure S6). NCI-60 screens evaluate cells treated for 48 h at 10 µM with a given compound. […] Of high interest, in the NCI-60 screen, Dxr2-017 had relatively high activity against melanoma cell lines, inducing cell death in five cell lines ranging from 25% to 65%, and inhibiting growth in four cell lines ranging from 76% to 96%. Its impact on cell death represented the most striking relative difference in response across cell lines.

Mean Number of Colonies, % of Control, 14 days [1]	Mean Number of Colonies, % of Control, 8 days [1]	Compound	further results
		O=c1[nH]cc(F)c(=O)[nH]1 [Compound 5FU, 5-fluorouracil, reference compound]	efficacy ratio (cancer cell colonies / bone marrow colonies, 8 days) (HT29): 0.82; effect on bone marrow colony formation (in words) ([1]; 0.82 µM): no effect on bone marrow; effect on bone marrow colony formation (in words) ([1]; 5.7 µM): profound suppressive effects; hematopoietic colony formation, % of the control ([1]; 5.7 µM, 8 days): 38 % of the control; effect on bone marrow colony formation (in words) ([1]; 40 µM): completely suppressed colony formation
93 % of Control	109 % of Control	Cc1nnsc1C(=O)OCCCn1c(=O)[nH]c2ccccc21 [Dxr2-001]	
114 % of Control	94 % of Control	Cc1[nH]c(=O)[nH]c1C(=O)CCCCC(=O)O [EPSP-023]	
85 % of Control	80 % of Control	c1ccc(CCc2n[nH]c(-c3ccccn3)n2)cc1 [FolC1-031]	
87 % of Control	108 % of Control	O=C(Cn1c(=O)oc2ccccc21)N1CCn2c1nc1ccccc12 [FolC2-001]	efficacy ratio, mean ± SEM over cell lines with ratio below 0.5 ([2]; 40 µM, 8 days): 0.29 ± 0.09; number of cell lines with efficacy ratio below 0.5 ([2]; 40 µM, 8 days): five; efficacy at concentrations below 40 µM (in words) [2]: rapidly dropped off below 40 µM; activity in the NCI-60 screen (in words) (NCI-60 cell lines): against H226
101 % of Control	105 % of Control	O=C(CCc1c[nH]c2ccccc12)N1CCSc2ccccc21 [FolC2-005]	efficacy at concentrations below 40 µM (in words) [2]: A similar phenomenon was observed
119 % of Control	93 % of Control	O=C(Nc1nnn[nH]1)c1cc(-c2ccccc2)nc2ccccc12 [PRT-051]	
103 % of Control	117 % of Control	O=C(Cc1n[nH]c(=O)c2ccccc12)Nn1cnc2ccccc21 [TYLT-001]	
94 % of Control	97 % of Control	O=C(COC(=O)c1cccs1)c1ccc2[nH]c(=O)[nH]c2c1 [TYLT-003]	
